Common to all, as to format: in vivo
Conditions in all cases: evaluated after 13 days

Test [1] has as its system Zea mays (ZEAMX). The test can be described thus: Pre-emergence Test, Zea mays (ZEAMX).
For test [2], the system named is Echinochloa crus-galli (ECHCG). The test can be described thus: Pre-emergence Test, Echinochloa crus-galli (ECHCG).
Test [3] relates to Echinochloa crus-galli (ECHCG). The test can be described thus: Post-emergence Test, Echinochloa crus-galli (ECHCG). Details: key to percentage damage caused to the plant, ECHCG (five-point scale): 5=81-100%, 4=61-80%, 3=41-60%, 2=21-40%, 1=0-20% damage. The gist of the method: (§1)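 Pots sprayed with compound in acetone/water (50:50) with 0.5% Tween 20, at 1000 g/ha unless noted, glasshouse 24/16 °C, 14 h light, 65% humidity. Damage scored 13 days after spraying on a five-point scale (5=81-100% to 1=0-20%).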

Test [4] concerns Ipomoea hederacea (IPOHE). The test can be described thus: Pre-emergence Test, Ipomoea hederacea (IPOHE).
The subject of test [5] is Amaranthus retoflexus (AMARE). Kind of test: Post-emergence Test, Amaranthus retoflexus (AMARE). The arrangement: key to percentage damage caused to the plant, AMARE (five-point scale): 5=81-100%, 4=61-80%, 3=41-60%, 2=21-40%, 1=0-20% damage. The gist of the method:
as §1

Test [6] concerns Ipomoea hederacea (IPOHE). The test can be described thus: Post-emergence Test, Ipomoea hederacea (IPOHE). The arrangement: key to percentage damage caused to the plant, IPOHE (five-point scale): 5=81-100%, 4=61-80%, 3=41-60%, 2=21-40%, 1=0-20% damage. The gist of the method: as §1
Test [7] concerns Amaranthus palmeri (AMAPA). Kind of test: Post-emergence Test, Amaranthus palmeri (AMAPA). The arrangement: key: 5=81-100%, 4=61-80%, 3=41-60%, 2=21-40%, 1=0-20% damage. The gist of the method:
as §1

The test system of test [8] is Amaranthus retoflexus (AMARE). The test can be described thus: Pre-emergence Test, Amaranthus retoflexus (AMARE).
Test [9] deals with Zea mays (ZEAMX). Kind of test: Post-emergence Test, Zea mays (ZEAMX). Details: key to percentage damage caused to the plant, ZEAMX (five-point scale): 5=81-100%, 4=61-80%, 3=41-60%, 2=21-40%, 1=0-20% damage. The gist of the method:
as §1

Test [10] deals with Setaria faberi (SETFA). Kind of test: Post-emergence Test, Setaria faberi (SETFA). Details: key to percentage damage caused to the plant, SETFA (five-point scale): 5=81-100%, 4=61-80%, 3=41-60%, 2=21-40%, 1=0-20% damage. In a few lines:
as §1

Test [11] concerns Amaranthus palmeri (AMAPA). The test can be described thus: Pre-emergence Test, Amaranthus palmeri (AMAPA).
The test system of test [12] is Setaria faberi (SETFA). The test can be described thus: Pre-emergence Test, Setaria faberi (SETFA).

Molecules are shown by their SMILES.

Regarding `CCn1c(Cn2cnc([N+](=O)[O-])c2)cc(=O)c(C(=O)O)c1-c1ccc(Cl)c(Cl)c1` [Compound 50, 2-(3,4-dichlorophenyl)-1-ethyl-6-[(4-nitroimidazol-1-yl)methyl]-4-oxo-pyridine-3-carboxylic acid], the “Pre-emergence Test ZEAMX, percentage damage caused to the plant (five-point scale)” value in test [1] (1000 g/ha) stood at 0. The “Pre-emergence Test ECHCG, percentage damage caused to the plant (five-point scale)” value in test [2] (1000 g/ha) is recorded as 1 (1=0-20%). For the same compound, the “percentage damage caused to the plant, ECHCG (five-point scale)” value in test [3] (1000 g/ha) is given as 1 (1=0-20%). Further, the “Pre-emergence Test IPOHE, percentage damage caused to the plant (five-point scale)” value in test [4] (1000 g/ha) turned out to be 0. Moreover, in [5] (1000 g/ha), the “percentage damage caused to the plant, AMARE (five-point scale)” value is 0. Besides, the “percentage damage caused to the plant, IPOHE (five-point scale)” value in test [6] (1000 g/ha) is on record as 2 (2=21-40%). Moreover, in [7] (1000 g/ha), the “percentage damage caused to the plant, AMAPA (five-point scale)” value is recorded as 3 (3=41-60%). For the same compound, the “Pre-emergence Test AMARE, percentage damage caused to the plant (five-point scale)” value in [8] (1000 g/ha) is recorded as 1 (1=0-20%). The “percentage damage caused to the plant, ZEAMX (five-point scale)” value in [9] (1000 g/ha) is on record as 1 (1=0-20%). Further, the “percentage damage caused to the plant, SETFA (five-point scale)” value in test [10] (1000 g/ha) was 2 (2=21-40%). Further, in test [11] (1000 g/ha), the “Pre-emergence Test AMAPA, percentage damage caused to the plant (five-point scale)” value is 1 (1=0-20%). In addition, the “Pre-emergence Test SETFA, percentage damage caused to the plant (five-point scale)” value in test [12] (1000 g/ha) is 0.

As for `CCn1c(Cn2cc([N+](=O)[O-])c(C)n2)cc(=O)c(C(=O)O)c1-c1ccc(Cl)c(Cl)c1` [Compound 64, 2-(3,4-dichlorophenyl)-1-ethyl-6-[(3-methyl-4-nitro-pyrazol-1-yl)methyl]-4-oxo-pyridine-3-carboxylic acid], in [1] (250 g/Ha (*)), the “Pre-emergence Test ZEAMX, percentage damage caused to the plant (five-point scale)” value is 0. Also, in [2] (250 g/Ha (*)), the “Pre-emergence Test ECHCG, percentage damage caused to the plant (five-point scale)” value came out at 0. Besides, the “percentage damage caused to the plant, ECHCG (five-point scale)” value in test [3] (250 g/Ha) is listed as 3 (3=41-60%). The “Pre-emergence Test IPOHE, percentage damage caused to the plant (five-point scale)” value in test [4] (250 g/Ha (*)) was 3 (3=41-60%). In addition, the “percentage damage caused to the plant, AMARE (five-point scale)” value in [5] (250 g/Ha) is listed as 3 (3=41-60%). Also, the “percentage damage caused to the plant, IPOHE (five-point scale)” value in test [6] (250 g/Ha) is listed as 1 (1=0-20%). Moreover, the “percentage damage caused to the plant, AMAPA (five-point scale)” value in test [7] (250 g/Ha) is 2 (2=21-40%). Besides, the “Pre-emergence Test AMARE, percentage damage caused to the plant (five-point scale)” value in test [8] (250 g/Ha (*)) is listed as 0. For the same compound, in [9] (250 g/Ha), the “percentage damage caused to the plant, ZEAMX (five-point scale)” value is 1 (1=0-20%). Also, the “percentage damage caused to the plant, SETFA (five-point scale)” value in [10] (250 g/Ha) is on record as 2 (2=21-40%). In [11] (250 g/Ha (*)), the “Pre-emergence Test AMAPA, percentage damage caused to the plant (five-point scale)” value was 1 (1=0-20%). Also, the “Pre-emergence Test SETFA, percentage damage caused to the plant (five-point scale)” value in test [12] (250 g/Ha (*)) was 2 (2=21-40%).

Regarding `CCn1c(Cn2ncc3cnc(Cl)cc32)cc(=O)c(C(=O)O)c1-c1ccc(Cl)c(Cl)c1` [Compound 75, 6-[(6-chloropyrazolo[4,3-c]pyridin-1-yl)methyl]-2-(3,4-dichlorophenyl)-1-ethyl-4-oxo-pyridine-3-carboxylic acid], in test [1] (250 g/Ha (*)), the “Pre-emergence Test ZEAMX, percentage damage caused to the plant (five-point scale)” value came to 0. The “Pre-emergence Test ECHCG, percentage damage caused to the plant (five-point scale)” value in test [2] (250 g/Ha (*)) is recorded as 1 (1=0-20%). In addition, the “percentage damage caused to the plant, ECHCG (five-point scale)” value in test [3] (250 g/Ha) is 1 (1=0-20%). Besides, the “Pre-emergence Test IPOHE, percentage damage caused to the plant (five-point scale)” value in [4] (250 g/Ha (*)) is 0. In addition, the “percentage damage caused to the plant, AMARE (five-point scale)” value in test [5] (250 g/Ha) is recorded as 1 (1=0-20%). The “percentage damage caused to the plant, IPOHE (five-point scale)” value in test [6] (250 g/Ha) is reported as 0. The “percentage damage caused to the plant, AMAPA (five-point scale)” value in test [7] (250 g/Ha) was 1 (1=0-20%). The “Pre-emergence Test AMARE, percentage damage caused to the plant (five-point scale)” value in test [8] (250 g/Ha (*)) is 1 (1=0-20%). Besides, in test [9] (250 g/Ha), the “percentage damage caused to the plant, ZEAMX (five-point scale)” value stood at 0. In test [10] (250 g/Ha), the “percentage damage caused to the plant, SETFA (five-point scale)” value stood at 0. For the same compound, the “Pre-emergence Test AMAPA, percentage damage caused to the plant (five-point scale)” value in test [11] (250 g/Ha (*)) is recorded as 1 (1=0-20%). Also, the “Pre-emergence Test SETFA, percentage damage caused to the plant (five-point scale)” value in test [12] (250 g/Ha (*)) was 1 (1=0-20%).

`CCn1c(Cn2ccc(I)n2)cc(=O)c(C(=O)O)c1-c1ccc(Cl)c(Cl)c1` [Compound 78, 2-(3,4-dichlorophenyl)-1-ethyl-6-[(3-iodopyrazol-1-yl)methyl]-4-oxo-pyridine-3-carboxylic acid]: the “Pre-emergence Test ZEAMX, percentage damage caused to the plant (five-point scale)” value was 4 (4=61-80%) in test [1] (250 g/Ha (*)) and 3 (3=41-60%) in test [1] (1000 g/ha). For the same compound, the “Pre-emergence Test ECHCG, percentage damage caused to the plant (five-point scale)” value in [2] (250 g/Ha (*)) and in [2] (1000 g/ha) was 5 (5=81-100%) in each case. For the same compound, the “percentage damage caused to the plant, ECHCG (five-point scale)” value is 3 (3=41-60%) in test [3] (250 g/Ha) and 4 (4=61-80%) in test [3] (1000 g/ha). For the same compound, the “Pre-emergence Test IPOHE, percentage damage caused to the plant (five-point scale)” value in test [4] (250 g/Ha (*)) and in test [4] (1000 g/ha) was 4 (4=61-80%) each time. Besides, the figures for the “percentage damage caused to the plant, AMARE (five-point scale)” value in [5] (250 g/Ha) and in test [5] (1000 g/ha) were 1 (1=0-20%) and 3 (3=41-60%), respectively. Also, the “percentage damage caused to the plant, IPOHE (five-point scale)” value in test [6] (250 g/Ha) and in [6] (1000 g/ha) was 4 (4=61-80%) each time. The “percentage damage caused to the plant, AMAPA (five-point scale)” value in [7] (250 g/Ha) and in [7] (1000 g/ha) was 2 (2=21-40%) each time. The “Pre-emergence Test AMARE, percentage damage caused to the plant (five-point scale)” value in test [8] (250 g/Ha (*)) and in test [8] (1000 g/ha) was 2 (2=21-40%) each time. Besides, the entries for the “percentage damage caused to the plant, ZEAMX (five-point scale)” value in test [9] (250 g/Ha) and in test [9] (1000 g/ha) were 1 (1=0-20%) and 3 (3=41-60%), respectively. The “percentage damage caused to the plant, SETFA (five-point scale)” value in test [10] (250 g/Ha) and in [10] (1000 g/ha) was 4 (4=61-80%) throughout. Besides, the “Pre-emergence Test AMAPA, percentage damage caused to the plant (five-point scale)” value in [11] (250 g/Ha (*)) is 3 (3=41-60%); in test [11] (1000 g/ha) it was 2 (2=21-40%). Further, the “Pre-emergence Test SETFA, percentage damage caused to the plant (five-point scale)” value in test [12] (250 g/Ha (*)) and in [12] (1000 g/ha) was 5 (5=81-100%) each time.

Turning to `CCn1c(Cn2cncc2Cl)cc(=O)c(C(=O)O)c1-c1ccc(Cl)c(Cl)c1` [Compound 79, 6-[(5-chloroimidazol-1-yl)methyl]-2-(3,4-dichlorophenyl)-1-ethyl-4-oxo-pyridine-3-carboxylic acid], the “Pre-emergence Test ZEAMX, percentage damage caused to the plant (five-point scale)” value in test [1] (250 g/Ha (*)) is reported as 0. The “Pre-emergence Test ECHCG, percentage damage caused to the plant (five-point scale)” value in test [2] (250 g/Ha (*)) was 1 (1=0-20%). Further, the “percentage damage caused to the plant, ECHCG (five-point scale)” value in [3] (250 g/Ha) was 1 (1=0-20%). Moreover, the “Pre-emergence Test IPOHE, percentage damage caused to the plant (five-point scale)” value in [4] (250 g/Ha (*)) stood at 0. Also, the “percentage damage caused to the plant, AMARE (five-point scale)” value in test [5] (250 g/Ha) was 1 (1=0-20%). Besides, the “percentage damage caused to the plant, IPOHE (five-point scale)” value in test [6] (250 g/Ha) was 1 (1=0-20%). The “percentage damage caused to the plant, AMAPA (five-point scale)” value in test [7] (250 g/Ha) amounted to 0. For the same compound, in test [8] (250 g/Ha (*)), the “Pre-emergence Test AMARE, percentage damage caused to the plant (five-point scale)” value turned out to be 0. Further, the “percentage damage caused to the plant, ZEAMX (five-point scale)” value in test [9] (250 g/Ha) is recorded as 1 (1=0-20%). The “percentage damage caused to the plant, SETFA (five-point scale)” value in [10] (250 g/Ha) amounted to 0. The “Pre-emergence Test AMAPA, percentage damage caused to the plant (five-point scale)” value in test [11] (250 g/Ha (*)) was 1 (1=0-20%). Further, in [12] (250 g/Ha (*)), the “Pre-emergence Test SETFA, percentage damage caused to the plant (five-point scale)” value is reported as 1 (1=0-20%).

(Values after patent publication US20250098679A1, “HERBICIDAL PYRIDONE DERIVATIVES” (SYNGENTA CROP PROTECTION AG, priority 2021, published 2025).)
